Patent US20070225248A1 (Clavis Pharma AS, priority 2006, published 2007)
Like-named read-outs stand apart in the source and are kept apart here. Marks after values point to notes of the source that are not given here.

What was measured:
[1] = tested on: Co6044 (human colon carcinoma); assay: Antitumour activity in human colon cancer xenograft Co6044, IP treatment; conditions: for Toxic deaths (d): 8 mice; for Optimum T/C [%]: significant vs saline
Excerpt: (§1) Treatment started when the tumors reached a mean volume of 100 mm^3.

[2] = tested on: Colon 5776 (human colon carcinoma); assay: Antitumour activity in human colon cancer xenograft Co5776, IP treatment; conditions: for Toxic deaths (d): 8 NCR:nu/nu female mice; for Optimum T/C [%] (volume of treated tumour versus control tumour): significant vs saline; for antitumour activity in terms of reductions in tumor growth (in words): FIG. 1
Excerpt: (§2) Human colon cancer Co5776 was inserted to Ncr:nu/nu female mice subcutaneously, and treatment started when tumors reached a mean volume of 100 mm^3.

[3] = Maximum tolerated dose, administration every third day repeated five times; format: in vivo, mice; conditions: administered every third day
Excerpt: This is shown below by the experiments presented in table 1 and table 2 using different mice strains and also different human colon xenografts.

[4] = tested on: Colon 6044 (human colon carcinoma); assay: Antitumour activity in Co6044 after oral administration, different dosing schedules (Table 4); format: in vivo, mice; conditions: for Toxic deaths (d): 7 mice; for Optimum T/C [%] (on day): significant vs saline
Excerpt: Antitumour Activity of Elaidic Acid (5′)-Gemcitabine Ester in Co6044 After Oral Administration

[5] = tested on: Colon 6044 (human colon carcinoma)
[6] = tested on: Colon 5776 (human colon carcinoma); conditions: mouse, in vivo, ip, 120 mg/kg
Excerpt: as §2

[7] = tested on: Co6044 (human colon carcinoma); conditions: mouse, in vivo, ip, 120 mg/kg
Excerpt: as §1

[8] = IP 40 mg/kg, D8, 11, 14, 17, 20
[9] = Oral 10 mg/kg, D 7, 10, 13, 16, 19
[10] = Oral 15 mg/kg, D 7, 10, 13, 16, 19
[11] = IP 120 mg/kg, D8, 11, 14, 17, 20

Compound: CCCCCCCC/C=C/CCCCCCCC(=O)OC[C@H]1O[C@@H](n2ccc(N)nc2=O)C(F)(F)[C@@H]1O [Elaidic acid (5′)-gemcitabine ester, elaidic acid (5′)-gemcitabine ester]
- antitumor effect (in words) ([1]; IP 40 mg/kg every third day for five times): Excellent antitumor effect
- Toxic deaths (d) [1, 8]: 0
- BWC D 8-15 (body weight change) ([1]; IP 40 mg/kg, D8, 11, 14, 17, 20, D 8-15): −1
- Optimum T/C [%] [1, 8]: 19* %
- BWC [%] (body weight change) [2, 8]: −4%
- Toxic deaths (d) [2, 8]: 0
- Optimum T/C [%] (volume of treated tumour versus control tumour) [2, 8]: 17* %
- antitumour activity in terms of reductions in tumor growth (in words) ([2]; IP 40 mg/kg): high antitumour activity
- maximum tolerated dose [3]: 40 mg/kg per injection
- BWC [%] ([4]; Oral 5 mg/kg, D 7-11): −3%
- Toxic deaths (d) ([4]; Oral 5 mg/kg, D 7-11): 0
- Optimum T/C [%] (on day) ([4]; Oral 5 mg/kg, D 7-11, optimum on day 28): 10(28)* %
- BWC [%] [4, 9]: −1%
- Toxic deaths (d) [4, 9]: 0
- Optimum T/C [%] (on day) ([4]; Oral 10 mg/kg, D 7, 10, 13, 16, 19, optimum on day 24): 35(24)* %
- BWC [%] ([4]; Oral 10 mg/kg, D 7-11): −5%
- Toxic deaths (d) ([4]; Oral 10 mg/kg, D 7-11): 0
- Optimum T/C [%] (on day) ([4]; Oral 10 mg/kg, D 7-11, optimum on day 17): 8(17)* %
- BWC [%] [4, 10]: −1%
- Toxic deaths (d) [4, 10]: 0
- Optimum T/C [%] (on day) ([4]; Oral 15 mg/kg, D 7, 10, 13, 16, 19, optimum on day 24): 27(24)* %
- BWC [%] ([4]; Oral 20 mg/kg, D 7, 10, 13, 16, 19): −3%
- Toxic deaths (d) ([4]; Oral 20 mg/kg, D 7, 10, 13, 16, 19, death on day 17): 1(17)
- Optimum T/C [%] (on day) ([4]; Oral 20 mg/kg, D 7, 10, 13, 16, 19, optimum on day 24): 16(24)* %
- BWC [%] ([4]; Oral 50 mg/kg, D 7, 14): 0%
- Toxic deaths (d) ([4]; Oral 50 mg/kg, D 7, 14): 0
- Optimum T/C [%] (on day) ([4]; Oral 50 mg/kg, D 7, 14, optimum on day 17): 22(17)* %
- BWC [%] ([4]; Oral 100 mg/kg, D 7, 14): −4%
- Toxic deaths (d) ([4]; Oral 100 mg/kg, D 7, 14, death on day 20): 1(20)
- Optimum T/C [%] (on day) ([4]; Oral 100 mg/kg, D 7, 14, optimum on day 24): 4(24)* %
- activity after oral administration (in words) ([4]; oral, all tested schedules): High dose dependent activity
- significance of antitumour activity (in words) ([4]; oral, all the tested schedules): Significant antitumour activity
- BWC [%] D 13 ([5]; Oral 40 mg/kg, Q3 × 5, D 13): −7%
- Toxic deaths (d) ([5]; Oral 40 mg/kg, Q3 × 5, deaths on day 15): 2/8 (15)
- Optimum T/C [%] (on day) ([5]; Oral 40 mg/kg, Q3 × 5, optimum on day 27, significant vs saline): 5(27)* %
- Optimum T/C [%] (on day) ([5]; Oral 60 mg/kg, Q3 × 5): Toxic
- BWC [%] D 13 ([5]; Oral 60 mg/kg, Q3 × 5, D 13): −9%
- Toxic deaths (d) ([5]; Oral 60 mg/kg, Q3 × 5, deaths days 12-24): 6/8(12-24)
- Optimum T/C [%] (on day) ([5]; Oral 80 mg/kg, Q3 × 5): Toxic
- BWC [%] D 13 ([5]; Oral 80 mg/kg, Q3 × 5, D 13): −6%
- Toxic deaths (d) ([5]; Oral 80 mg/kg, Q3 × 5, deaths days 16-22): 6/8(16-22)
- activity and tolerability when given orally (in words) ([5]; oral, 40 mg/kg): highly active and tolerable

Compound: Nc1ccn([C@@H]2O[C@H](CO)[C@@H](O)C2(F)F)c(=O)n1 [Gemcitabine, 2′,2′-difluorodeoxycytidine, reference compound]
- antitumor effect (in words) ([1]; IP 120 mg/kg every third day for five times): Excellent antitumor effect
- Toxic deaths (d) [1, 11]: 0
- Optimum T/C [%] [1, 11]: 15* %
- Toxic deaths (d) ([2]; IP 120 mg/kg, D8, 11, 14, 17, 20, death on day 18): 1(18)
- Optimum T/C [%] (volume of treated tumour versus control tumour) [2, 11]: 17* %
- antitumour activity in terms of reductions in tumor growth (in words) ([2]; IP 120 mg/kg): high antitumour activity
- maximum tolerated dose [3]: approximately 120 mg/kg per injection
- BWC [%] (body weight change) [6]: −5%
- BWC D 8-15 (body weight change) [7]: −3
- BWC [%] D 13 ([5]; mouse, in vivo, po, 120 mg/kg): −16%
- BWC [%] D 13 ([5]; mouse, in vivo, po, 180 mg/kg): −22%
- BWC [%] D 13 ([5]; mouse, in vivo, po, 240 mg/kg): −21%
